Data published in patent US8088806B2 (Achillion Pharmaceuticals, Inc., priority 2005, dated 2012).

Tested on: HCV replicon
Assay: Replicon based assay of HCV replication inhibition (NPT ELISA)
Assay type: cell-based, Hepatitis C virus
Details: Hepatitis C virus, Huh-7, 72 h, Table I; Huh-7 HCV replicon-containing cells, three days; read-out: Activity
Protocol: Compounds claimed herein are tested for the ability to inhibit viral replication of the Hepatitis C replicon in cultured cells in which the HCV replicon construct has been incorporated. The HCV replicon system was described by Bartenschlager, et. al (Science, 285, pp. 110-113 (1999)). The replicon system is predictive of in vivo anti-HCV activity; compounds that are active in humans uniformly evidence activity in the replicon assay.
In this assay HCV replicon containing cells are treated with different concentrations of the test compound to ascertain the ability of the test compound to suppress replication of the HCV replicon. As a positive control, HCV replicon-containing cells are treated with different concentrations of interferon alpha, a known inhibitor of HCV replication. The replicon assay system includes Neomycin Phosphotransferase (NPT) as a component of the replicon itself in order to detect the transcription of replicon gene products in the host cell. Cells in which the HCV replicon is actively replicating have high levels of NPT; the level of NPT is proportional to HCV replication. […] The NPT level of each sample is measured using a captured ELISA.
A protocol for testing compounds for the ability to inhibit viral replication of the Hepatitis C replicon cultured cells in which the replicon construct has been incorporated, follows.
The HCV replicon contains, 5′-3′, the HCV-IRES, the neomycin phosphotransferase (neo) gene, the IRES of encephalomyocarditis virus, which directs translation of HCV sequences NS3 to NS5B, and the 3′-NTR. The sequence of the HCV replicon has been deposited in GenBank (Accession no. AJ242652).
The replicon is transfected into Huh-7 cells using standard methods such as electroporation.
The equipment and materials include, but are not limited to, Huh-7 HCV replicon-containing cells, maintenance media (DMEM (Dulbecco's modified Eagle media) supplemented with 10% FBS, L-glutamine, non-essential amino acids, penicillin (100 units/ml), streptomycin (100 micrograms/ml), and 500 micrograms/ml of Geneticin (G418), screening media (DMEM supplemented with 10% FBS, L-glutamine, non-essential amino acids, penicillin (100 units/ml) and streptomycin (100 micrograms/ml)), 96 well tissue culture plates (flat bottom), 96 well plates (U bottom for drug dilution), Interferon alpha for positive control, fixation reagent (such as methanol: acetone), primary antibody (rabbit anti-NPTII), secondary antibody: Eu-N1l, and enhancement solution.
The cells are then seeded onto 96-well plates at a density of 6000-7500 cells/100 microliters/well (6-7.5×10^5 cells/10 ml/plate). The plates are then incubated at 37° C. in a 5% CO2 incubator.
HCV replicon-containing cells are rinsed with once PBS once; 2 mls of trypsin are then added. Cells are incubated at 37° C. in a 5% CO2 incubator for 3-5 minutes. 10 mls of complete medium is added to stop the reaction. Cells are blown gently, put into a 15 ml tube, and spun at 1200 rpm for four minutes. The trypsin/medium solution is removed and 5 mls of medium (500 ml DMEM (high glucose)) from BRL catalog #12430-054; 50 mls 10% FBS, 5% Geneticin G418 (50 mg/ml, BRL catalog #10131-035), 5 ml MEM non-essential amino acids (100×BRL #11140-050) and 5 ml pen-strep (BRL # 15140-148) is added. The cells and media are mixed carefully
Cells are plated with screening medium (500 ml DMEM (BRL #21063-029), 50 ml FBS (BRL #10082-147) and 5 ml MEM non-essential amino acid (BRL #11140-050) at 6000-7500 cells/100 μl/well of 96 well plate (6-7.5×10^5 cells/10 ml/plate). Plates are placed into 37° C. 5% CO2 incubator overnight.
The following morning, drugs (test compounds or interferon alpha) are diluted in 96 well U bottom plates with media or DMSO/media, depending on the final concentration chosen for screening. Generally for 6 concentrations of each test compounds ranging from 10 micromolar to 0.03 micromolar are applied. […]

SMILES | EC50 [nM]
Fc1ccc(-c2csc(Nc3ccc(Cl)c(C(F)(F)F)c3)n2)c(F)c1 [compound 61, N-(4-chloro-3-(trifluoromethyl)phenyl)-4-(2,4-difluorophenyl)thiazol-2-amine] | < 1000
FC(F)(F)c1cc(Nc2nc(-c3ccc(Cl)cc3)cs2)ccc1Cl [compound 62, N-(4-chloro-3-(trifluoromethyl)phenyl)-4-(4-chlorophenyl)thiazol-2-amine] | > 10000
CCCCCOc1ccc(Nc2nc(-c3ccc(F)cc3)cs2)cn1 [compound 63, N-(4-(4-fluorophenyl)thiazol-2-yl)-6-(pentyloxy)pyridin-3-amine] | < 1000
CCCCCOc1ccc(Nc2nc(-c3ccc(Cl)c(Cl)c3)cs2)cn1 [compound 64, N-(4-(3,4-dichlorophenyl)thiazol-2-yl)-6-(pentyloxy)pyridin-3-amine] | > 10000
CCCCCOc1ccc(Nc2nc(-c3ccc(F)cc3F)cs2)cn1 [compound 65, N-(4-(2,4-difluorophenyl)thiazol-2-yl)-6-(pentyloxy)pyridin-3-amine] | > 10000
CCCCCOc1ccc(Nc2nc(-c3ccc(Cl)cc3)cs2)cn1 [compound 66, N-(4-(4-chlorophenyl)thiazol-2-yl)-6-(pentyloxy)pyridin-3-amine] | < 1000
CCCCCOc1ccc(Nc2nc(-c3cccnc3)cs2)cn1 [compound 67, 6-(pentyloxy)-N-(4-(pyridin-3-yl)thiazol-2-yl)pyridin-3-amine] | < 1000
CCCCCOc1ccc(Nc2nc(-c3cccnc3)cs2)cc1F [compound 68, N-(3-fluoro-4-(pentyloxy)phenyl)-4-(pyridin-3-yl)thiazol-2-amine] | < 1000
c1cncc(-c2csc(Nc3ccc(CN4CCCCC4)cc3)n2)c1 [compound 69, N-(4-((piperidin-1-yl)methyl)phenyl)-4-(pyridin-3-yl)thiazol-2-amine] | > 10000
c1cc(Nc2nc(-c3cccnc3)cs2)cc(OC2Cc3ccccc3C2)c1 [compound 70, N-(3-(2,3-dihydro-1H-inden-2-yloxy)phenyl)-4-(pyridin-3-yl)thiazol-2-amine] | < 1000
Fc1cc(Nc2nc(-c3cccnc3)cs2)ccc1OCC1CCCCC1 [compound 71, N-(4-(cyclohexylmethoxy)-3-fluorophenyl)-4-(pyridin-3-yl)thiazol-2-amine] | < 1000
Fc1cc(Nc2nc(-c3cccnc3)cs2)ccc1N1CCC(c2ccccc2)CC1 [compound 72, N-(3-fluoro-4-(4-phenylpiperidin-1-yl)phenyl)-4-(pyridin-3-yl)thiazol-2-amine] | < 1000
FC(F)(F)Oc1cccc(CNc2nc(-c3cccnc3)cs2)c1 [compound 76, N-(3-(trifluoromethoxy)benzyl)-4-(pyridin-3-yl)thiazol-2-amine] | > 10000
FC(F)(F)Oc1ccc(CNc2nc(-c3cccnc3)cs2)cc1 [compound 77, N-(4-(trifluoromethoxy)benzyl)-4-(pyridin-3-yl)thiazol-2-amine] | > 10000
c1ccc(-c2ccc(CNc3nc(-c4cccnc4)cs3)cc2)cc1 [compound 78, N-(4-phenyl-benzyl)-4-(pyridin-3-yl)thiazol-2-amine] | > 10000
c1ccc(-c2cccc(CNc3nc(-c4cccnc4)cs3)c2)cc1 [compound 79, N-(3-phenyl-benzyl)-4-(pyridin-3-yl)thiazol-2-amine] | > 10000
c1ccc(Oc2ccc(CNc3nc(-c4cccnc4)cs3)cc2)cc1 [compound 80, N-(4-phenoxybenzyl)-4-(pyridin-3-yl)thiazol-2-amine] | > 10000
CCCCOc1ccc(CNc2nc(-c3cccnc3)cs2)cc1 [compound 81, N-(4-butoxybenzyl)-4-(pyridin-3-yl)thiazol-2-amine] | > 10000
CCCCc1ccc(CNc2nc(-c3cccnc3)cs2)cc1 [compound 82, N-(4-butylbenzyl)-4-(pyridin-3-yl)thiazol-2-amine] | > 10000
c1ccc(Oc2cccc(CCNc3nc(-c4cccnc4)cs3)c2)cc1 [compound 83, N-(3-phenoxyphenethyl)-4-(pyridin-3-yl)thiazol-2-amine] | > 10000

SMILES | EC50 [nM]
c1ccc(Oc2ccc(CCNc3nc(-c4cccnc4)cs3)cc2)cc1 [compound 84, N-(4-phenoxyphenethyl)-4-(pyridin-3-yl)thiazol-2-amine] | > 10000
CCCCCOc1ccc(Nc2nc(-c3cccnc3)cs2)cc1 [compound 85, N-(4-(pentyloxy)phenyl)-4-(pyridin-3-yl)thiazol-2-amine] | < 1000
CCCCCc1ccc(Nc2nc(-c3cccnc3)cs2)cc1 [compound 86, N-(4-pentylphenyl)-4-(pyridin-3-yl)thiazol-2-amine] | < 1000
c1ccc(COc2cccc(Nc3nc(-c4cccnc4)cs3)c2)cc1 [compound 87, N-(3-(benzyloxy)phenyl)-4-(pyridin-3-yl)thiazol-2-amine] | < 1000
c1ccc(Oc2cccc(Nc3nc(-c4cccnc4)cs3)c2)cc1 [compound 88, N-(3-phenoxyphenyl)-4-(pyridin-3-yl)thiazol-2-amine] | < 1000
c1ccc(CCOc2cccc(Nc3nc(-c4cccnc4)cs3)c2)cc1 [compound 89] | < 1000
CCCCCCOc1ccc(Nc2nc(-c3cccnc3)cs2)cc1 [compound 90, N-(4-(hexyloxy)phenyl)-4-(pyridin-3-yl)thiazol-2-amine] | < 1000
CCCCOc1ccc(Nc2nc(-c3cccnc3)cs2)cc1 [compound 91, N-(4-butoxyphenyl)-4-(pyridin-3-yl)thiazol-2-amine] | < 1000
CCCCCCCOc1ccc(Nc2nc(-c3cccnc3)cs2)cc1 [compound 92, N-(4-(heptyloxy)phenyl)-4-(pyridin-3-yl)thiazol-2-amine] | < 1000
CCCCCCCCOc1ccc(Nc2nc(-c3cccnc3)cs2)cc1 [compound 93, N-(4-(octyloxy)phenyl)-4-(pyridin-3-yl)thiazol-2-amine] | < 1000
CCCCCCCCc1ccc(Nc2nc(-c3cccnc3)cs2)cc1 [compound 95, N-(4-octylphenyl)-4-(pyridin-3-yl)thiazol-2-amine] | < 1000
CCCCc1ccc(Nc2nc(-c3cccnc3)cs2)cc1 [compound 96, N-(4-butylphenyl)-4-(pyridin-3-yl)thiazol-2-amine] | 1000 to 10000
c1ccc(Cc2cccc(Nc3nc(-c4cccnc4)cs3)c2)cc1 [compound 97, N-(3-benzylphenyl)-4-(pyridin-3-yl)thiazol-2-amine] | < 1000
N#CCc1ccc(Nc2nc(-c3cccnc3)cs2)cc1 [compound 98, 2-(4-(4-(pyridin-3-yl)thiazol-2-ylamino)phenyl)acetonitrile] | > 10000
c1cncc(-c2csc(Nc3ccc(N4CCOCC4)cc3)n2)c1 [compound 99, N-(4-morpholinophenyl)-4-(pyridin-3-yl)thiazol-2-amine] | > 10000
c1cncc(-c2csc(Nc3ccc(C4CCCCC4)cc3)n2)c1 [compound 100, N-(4-cyclohexylphenyl)-4-(pyridin-3-yl)thiazol-2-amine] | < 1000
c1cncc(-c2csc(Nc3ccc(N4CCCCC4)cc3)n2)c1 [compound 101, N-(4-(piperidin-1-yl)phenyl)-4-(pyridin-3-yl)thiazol-2-amine] | > 10000
c1cncc(-c2csc(Nc3ccc(-c4csnn4)cc3)n2)c1 [compound 102, N-(4-(1,2,3-thiadiazol-4-yl)phenyl)-4-(pyridin-3-yl)thiazol-2-amine] | > 10000
c1cncc(-c2csc(Nc3ccc(-n4ccnc4)cc3)n2)c1 [compound 103, N-(4-(1H-imidazol-1-yl)phenyl)-4-(pyridin-3-yl)thiazol-2-amine] | > 10000
